Experimental data published in patent US10927123B2, “Modulators of the beta-3 adrenergic receptor useful for the treatment or prevention of disorders related thereto” (Arena Pharmaceuticals, Inc., priority 2016, dated 2021).

Biological target: Beta-3 Adrenergic Receptor (Homo sapiens (Human), UniProt P13945)
Experiment: HTRF cAMP antagonist assay (IC50 determination)
Assay type: cell-based
Details: CHO-K1 cells stably expressing recombinant receptor; antagonism of isoproterenol at EC90; cAMP readout
Outline: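 In this functional readout, recombinant CHO-K1 cells received compound, then isoproterenol at its EC90. After 1 h at room temperature, cAMP levels were determined by HTRF using an on-plate standard curve, and IC50 values were fitted.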

Beta-3 Adrenergic Receptor, sequence (P13945 whole entry, species assumed): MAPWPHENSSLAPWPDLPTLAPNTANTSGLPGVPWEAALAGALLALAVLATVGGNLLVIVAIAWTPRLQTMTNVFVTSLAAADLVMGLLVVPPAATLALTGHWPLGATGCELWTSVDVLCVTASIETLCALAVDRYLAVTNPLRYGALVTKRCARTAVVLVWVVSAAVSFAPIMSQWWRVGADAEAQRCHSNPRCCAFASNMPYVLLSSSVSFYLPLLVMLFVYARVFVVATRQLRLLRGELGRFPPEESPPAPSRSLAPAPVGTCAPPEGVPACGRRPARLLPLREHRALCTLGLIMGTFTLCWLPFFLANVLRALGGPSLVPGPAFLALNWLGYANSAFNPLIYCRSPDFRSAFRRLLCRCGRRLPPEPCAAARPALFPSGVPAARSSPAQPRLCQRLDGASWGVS

Structure (SMILES) | IC50 [µM]
CCCS(=O)(=O)c1cccc(OC[C@@H](O)CN[C@H]2COC3(CCN(S(=O)(=O)c4cnc5ccccc5c4)CC3)C2)c1 [Compound 139, (S)-1-(3-(propylsulfonyl)phenoxy)-3-((R)-8-(quinolin-3-ylsulfonyl)-1-oxa-8-azaspiro[4.5]decan-3-ylamino)propan-2-ol] | 0.0362
CCCS(=O)(=O)c1cccc(OC[C@@H](O)CNC2COC3(CCN(S(=O)(=O)c4ccc5ccccc5c4)CC3)C2)c1 (stereo partly drawn) [Compound 6, (2S)-1-(8-(naphthalen-2-ylsulfonyl)-1-oxa-8-azaspiro[4.5]decan-3-ylamino)-3-(3-(propylsulfonyl)phenoxy)propan-2-ol] | 0.0165
Cn1cc(-c2cncc(S(=O)(=O)N3CCC4(CC3)C[C@@H](NC[C@H](O)COc3cccc(S(=O)(=O)CCO)c3)CO4)c2)cn1 [Compound 90, (S)-1-(3-(2-hydroxyethylsulfonyl)phenoxy)-3-((R)-8-(5-(1-methyl-1H-pyrazol-4-yl)pyridin-3-ylsulfonyl)-1-oxa-8-azaspiro[4.5]decan-3-ylamino)propan-2-ol] | 0.354
CS(=O)(=O)c1cccc(OC[C@@H](O)CNC2COC3(CCN(S(=O)(=O)c4ccc5ncccc5c4)CC3)C2)c1 (stereo partly drawn) [Compound 75, (2S)-1-(3-(methylsulfonyl)phenoxy)-3-(8-(quinolin-6-ylsulfonyl)-1-oxa-8-azaspiro[4.5]decan-3-ylamino)propan-2-ol] | 0.0267
CN1CCOc2cc(S(=O)(=O)N3CCC4(CC3)C[C@@H](NC[C@H](O)COc3cccc(S(=O)(=O)C5CC5)c3)CO4)cnc21 [Compound 290, (S)-1-(3-(cyclopropylsulfonyl)phenoxy)-3-((R)-8-(4-methyl-3,4-dihydro-2H-pyrido[3,2-b][1,4]oxazin-7-ylsulfonyl)-1-oxa-8-azaspiro[4.5]decan-3-ylamino)propan-2-ol] | 0.0342
CS(=O)(=O)c1cccc(OC[C@@H](O)CNC2COC3(CCN(S(=O)(=O)c4cccc(F)c4)CC3)C2)c1 (stereo partly drawn) [Compound 54, (2S)-1-(8-(3-fluorophenylsulfonyl)-1-oxa-8-azaspiro[4.5]decan-3-ylamino)-3-(3-(methylsulfonyl)phenoxy)propan-2-ol] | 0.0459
O=S(=O)(CCCO)c1cccc(OC[C@@H](O)CN[C@H]2COC3(CCN(S(=O)(=O)c4ccc5ncccc5c4)CC3)C2)c1 [Compound 121, 3-(3-((S)-2-hydroxy-3-((R)-8-(quinolin-6-ylsulfonyl)-1-oxa-8-azaspiro[4.5]decan-3-ylamino)propoxy)phenylsulfonyl)propan-1-ol] | 0.562
Cc1c(-c2ccc(C3(N)CC3)cc2)cccc1S(=O)(=O)N1CCC2(CC1)C[C@@H](NC[C@H](O)COc1cccc(S(=O)(=O)C3(CO)CC3)c1)CO2 [Compound 204, (S)-1-((R)-8-(4′-(1-aminocyclopropyl)-2-methylbiphenyl-3-ylsulfonyl)-1-oxa-8-azaspiro[4.5]decan-3-ylamino)-3-(3-(1-(hydroxymethyl)cyclopropylsulfonyl)phenoxy)propan-2-ol] | 0.504
CS(=O)(=O)c1cccc(OC[C@@H](O)CNC2COC3(CCN(C(=O)c4cc5ccccc5[nH]4)CC3)C2)c1 (stereo partly drawn) [Compound 65, (3-((S)-2-hydroxy-3-(3-(methylsulfonyl)phenoxy)propylamino)-1-oxa-8-azaspiro[4.5]decan-8-yl)(1H-indol-2-yl)methanone] | 0.711
CCOc1ccc(-c2ccc(CN)cc2)cc1S(=O)(=O)N1CCC2(CC1)C[C@H](NC[C@H](O)COc1cccc(S(=O)(=O)COC)c1)CO2 [Compound 230, (S)-1-((S)-8-(4′-(aminomethyl)-4-ethoxybiphenyl-3-ylsulfonyl)-1-oxa-8-azaspiro[4.5]decan-3-ylamino)-3-(3-(methoxymethylsulfonyl)phenoxy)propan-2-ol] | 0.015

The remaining molecules from weak to strong by IC50, led by results:

IC50 [µM] | Structure (SMILES)
1.29 | O=S(=O)(c1cccc(-c2ccc(CN3CCOCC3)cc2)c1)N1CCC2(CC1)C[C@@H](NC[C@H](O)COc1cccc(S(=O)(=O)C3(CO)CC3)c1)CO2 [Compound 266, (S)-1-(3-(1-(hydroxymethyl)cyclopropylsulfonyl)phenoxy)-3-((R)-8-(4′-(morpholinomethyl)biphenyl-3-ylsulfonyl)-1-oxa-8-azaspiro[4.5]decan-3-ylamino)propan-2-ol]
0.369 | Cc1cc(=O)[nH]c2ccc(S(=O)(=O)N3CCC4(CC3)C[C@@H](NC[C@H](O)COc3cccc(S(=O)(=O)C5(CO)CC5)c3)CO4)cc12 [Compound 236, 6-((R)-3-((S)-2-hydroxy-3-(3-(1-(hydroxymethyl)cyclopropylsulfonyl)phenoxy)propylamino)-1-oxa-8-azaspiro[4.5]decan-8-ylsulfonyl)-4-methylquinolin-2(1H)-one]
0.089 | O=S(=O)(CCO)c1cccc(OC[C@@H](O)CN[C@H]2COC3(CCN(S(=O)(=O)c4ccc5cccnc5c4)CC3)C2)c1 [Compound 98, (S)-1-(3-(2-hydroxyethylsulfonyl)phenoxy)-3-((R)-8-(quinolin-7-ylsulfonyl)-1-oxa-8-azaspiro[4.5]decan-3-ylamino)propan-2-ol]
0.0825 | CCn1cc(S(=O)(=O)N2CCC3(CC2)C[C@@H](NC[C@H](O)COc2cccc(S(=O)(=O)C(F)(F)CO)c2)CO3)c(=O)c2ccccc21 [Compound 298, 3-((R)-3-((S)-3-(3-(1,1-difluoro-2-hydroxyethylsulfonyl)phenoxy)-2-hydroxypropylamino)-1-oxa-8-azaspiro[4.5]decan-8-ylsulfonyl)-1-ethylquinolin-4(1H)-one]
0.0592 | O=S(=O)(c1cccc(OC[C@@H](O)CN[C@H]2COC3(CCN(S(=O)(=O)c4c[nH]c5ncccc45)CC3)C2)c1)C1CC1 [Compound 307, (S)-1-((R)-8-(1H-pyrrolo[2,3-b]pyridin-3-ylsulfonyl)-1-oxa-8-azaspiro[4.5]decan-3-ylamino)-3-(3-(cyclopropylsulfonyl)phenoxy)propan-2-ol]
0.035 | CCOc1ccc(-c2ccc(C3(N)CC3)cc2)cc1S(=O)(=O)N1CCC2(CC1)C[C@H](NC[C@H](O)COc1cccc(S(=O)(=O)C3(CO)CC3)c1)CO2 [Compound 188, (S)-1-((S)-8-(4′-(1-aminocyclopropyl)-4-ethoxybiphenyl-3-ylsulfonyl)-1-oxa-8-azaspiro[4.5]decan-3-ylamino)-3-(3-(1-(hydroxymethyl)cyclopropylsulfonyl)phenoxy)propan-2-ol]
0.0312 | NC1(c2ccc(-c3cccc(S(=O)(=O)N4CCC5(CC4)C[C@@H](NC[C@H](O)COc4cccc(S(=O)(=O)C6(CO)CC6)c4)CO5)c3)cc2)CC1 [Compound 173, (S)-1-((R)-8-(4′-(1-aminocyclopropyl)biphenyl-3-ylsulfonyl)-1-oxa-8-azaspiro[4.5]decan-3-ylamino)-3-(3-(1-(hydroxymethyl)cyclopropylsulfonyl)phenoxy)propan-2-ol]
0.0277 | NCc1ccc(-c2cccc(S(=O)(=O)N3CCC4(CC3)C[C@H](NC[C@H](O)COc3cccc(S(=O)(=O)C5(CO)CC5)c3)CO4)c2)cc1 [Compound 164, (S)-1-((S)-8-(4′-(aminomethyl)biphenyl-3-ylsulfonyl)-1-oxa-8-azaspiro[4.5]decan-3-ylamino)-3-(3-(1-(hydroxymethyl)cyclopropylsulfonyl)phenoxy)propan-2-ol]
0.0174 | CS(=O)(=O)c1cccc(OC[C@@H](O)CNC2COC3(CCN(S(=O)(=O)c4ccc(-c5ccccc5)s4)CC3)C2)c1 (stereo partly drawn) [Compound 51, (2S)-1-(3-(methylsulfonyl)phenoxy)-3-(8-(5-phenylthiophen-2-ylsulfonyl)-1-oxa-8-azaspiro[4.5]decan-3-ylamino)propan-2-ol]
